Tests used:
Type in all cases: in vivo
[1] = system: damping-off fungus (Rhizoctonia solani); assay: Test Example 23: soybean seed treatment, damping-off control in pots; settings: soybean seeds, 20 days after
[2] = system: damping-off fungus (Pythium spp.); assay: Test Example 21: corn seed treatment, damping-off control in pots; settings: corn seeds, 20 days after
Method: In a rotary seed treatment machine (trade name: HEGE11, manufactured by WINTERSTEIGER), corn seeds (variety: yellow dent corn) were treated by smearing treatment using a flowable formulation of the present bacterial strain as obtained in Formulation Example 13 and ethaboxam flowable formulation (34.6% flowable formulation, Valent U.S.A. Corporation), so that the […] retain the present bacterial strain and/or the compound in the amount shown in Table 6.
Cultivation was carried out in a greenhouse under irrigation. Also, similar procedures were conducted using untreated corn seeds, instead of the treated corn seeds, as described above for the treated compartment (“untreated compartment”). The plants were investigated 20 days after for the number of diseased plants, and the disease incidence was calculated by the following “Equation 1”. The control value of the treated compartment was calculated by the following equation “Equation 2”, based on the disease incidences of the treated compartment and the untreated compartment.
Disease incidence (%)=100×(number of diseased plant/total number of seeded seeds): Equation 1
Control value (%)=100×[(disease incidence in […] in treated compartment)/disease incidence in untreated compartment]: Equation 2
If the effect by the combination of two active ingredients is greater than that of the estimated value E, which is calculated by the Colby's equation as follows, the effect is regarded as synergistic.
wherein, E=Control value when using the mixture of the active ingredients A and B at the concentrations m and n (amount of the active ingredient), respectively. X=Control value when using the active ingredient A at the concentration m (amount of the active ingredient). Y=Control value when using the active ingredient B at the concentration n (amount of the active ingredient).

[3] = system: damping-off fungus (Pythium spp.); assay: Test Example 22: soybean seed treatment, damping-off control in pots; settings: soybean seeds, 20 days after
Method: If the effect by the combination of two active ingredients is greater than that of the estimated value E, which is calculated by the Colby's equation as follows, the effect is regarded as synergistic. E=X+Y-X·Y/100 wherein, E=Control value when using the mixture of the active ingredients A and B at the concentrations m and n (amount of the active ingredient), respectively. X=Control value when using the active ingredient A at the concentration m (amount of the active ingredient). Y=Control value when using the active ingredient B at the concentration n (amount of the active ingredient). […] Corporation) and metalaxyl flowable formulation (30.14% flowable formulation, trade name: […] Cultivation was carried out in a greenhouse under irrigation. Also, similar procedures were conducted using untreated soybean seeds, instead of the treated soybean seeds, as described above for the treated compartment (“untreated compartment”). […] Disease incidence (%)=100×(number of diseased plant/total number of seeded seeds): […]

CC1CC(C)(C)c2cccc(NC(=O)c3cn(C)nc3C(F)F)c21 (racemic) [The Carboxamide Compound (1)]
Control Value ([1]; carboxamide compound (1) 0.0004 g/kg seeds): 40.0%
Control Value ([1]; carboxamide compound (1) 0.002 g/kg seeds): 54.3%
Control Value ([1]; carboxamide compound (1) 0.01 g/kg seeds): 65.7%

CCNc1nc(CC)c(C(=O)NC(C#N)c2cccs2)s1 (stereo not drawn) [Ethaboxam, ethaboxam]
Control Value ([2]; ethaboxam 0.00625 g/kg seeds): 19.4%
Control Value ([2]; ethaboxam 0.025 g/kg seeds): 32.3%
Control Value ([2]; ethaboxam 0.1 g/kg seeds): 48.4%
Control Value ([3]; ethaboxam 0.075 g/kg seeds): 46.9%
Control Value ([3]; ethaboxam 0.15 g/kg seeds): 56.2%
Control Value ([3]; ethaboxam 0.3 g/kg seeds): 62.5%

N#Cc1c[nH]cc1-c1cccc2c1OC(F)(F)O2 [Fludioxonil, fludioxonil]
Control Value ([1]; fludioxonil 0.004 g/kg seeds): 25.7%
Control Value ([1]; fludioxonil 0.02 g/kg seeds): 37.1%
Control Value ([1]; fludioxonil 0.1 g/kg seeds): 48.6%

COP(=S)(OC)Oc1c(Cl)cc(C)cc1Cl [Tolclofos-Methyl, tolclofos-methyl]
Control Value ([1]; tolclofos-methyl 0.01 g/kg seeds): 11.4%
Control Value ([1]; tolclofos-methyl 0.05 g/kg seeds): 28.6%
Control Value ([1]; tolclofos-methyl 0.25 g/kg seeds): 42.8%

COCC(=O)N(c1c(C)cccc1C)C(C)C(=O)OC (stereo not drawn) [Metalaxyl, metalaxyl]
Control Value ([3]; metalaxyl 0.01 g/kg seeds): 40.6%
Control Value ([3]; metalaxyl 0.04 g/kg seeds): 50.0%
Control Value ([3]; metalaxyl 0.16 g/kg seeds): 59.4%

Reference: US20180213795A1, “PLANT DISEASE CONTROL COMPOSITION AND PLANT DISEASE CONTROL METHOD” (SUMITOMO CHEMICAL COMPANY, LIMITED, priority 2015, published 2018)
